Reference: PubChem BioAssay (NCI)
Where “and” joins values, the source holds several entries; their conditions need not be identical. Equal entries are not always repeated.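 Following 48 hours of exposure in 96-well plates, responses at five concentrations were used to interpolate endpoints linearly. GI50 is the concentration that inhibits growth by half. The concentration for full growth arrest is given as TGI.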

Tests used:
Experiment in all cases: NCI anticancer screen, dose series, 48 h
[1] = test system: K-562 leukemia
[2] = test system: KM20L2 colon
[3] = test system: SF-268 CNS
[4] = test system: SF-295 CNS
[5] = test system: SNB-75 CNS
[6] = test system: SNB-78 CNS
[7] = test system: SR leukemia
[8] = test system: HS 578T breast
[9] = test system: BT-549 breast
[10] = test system: DMS 273 small cell lung
[11] = test system: XF 498 CNS

| SMILES | TGI [1] | GI50 [2] | TGI [2] | TGI [3] | TGI [4] | TGI [5] | GI50 [6] | TGI [6] | TGI [7] | TGI [8] | TGI [9] | TGI [10] | GI50 [1] | GI50 [3] | GI50 [4] | GI50 [5] | GI50 [7] | TGI [11] | GI50 [9] | GI50 [8] |
| --- | --- | --- | --- | --- | --- | --- | --- | --- | --- | --- | --- | --- | --- | --- | --- | --- | --- | --- | --- | --- |
| CCCC(=O)[O-].N.N.N.N.N.[Co+3].[O-][Cl+3]([O-])([O-])[O-] | > 100 µM | > 100 µM | > 100 µM | > 100 µM | > 100 µM | > 100 µM | > 100 µM | > 100 µM | – | – | – | – | – | – | – | – | – | – | – | – |
| COC1OC2=CCC3C(=O)NC(=O)C3C2[C@H](OCc2ccccc2)C1OCc1ccccc1 (some centres not stated) | – | – | 5.59 µM | – | 32.7 µM | 31.5 µM | – | 4.12 µM | – | – | – | – | – | – | – | – | – | – | – | – |
| O=C(N/N=C/c1cc(Br)cc(Br)c1[O-])c1ccccc1O.O=C(N/N=C/c1cc(Br)cc(Br)c1[O-])c1ccccc1O.[Ni+2] | 4.88 µM | – | 1.85 µM | 6.94 µM | 1.11 µM | 4.9 µM | – | – | 1.65 µM | – | – | – | – | – | – | – | – | – | – | – |
| CCOC(=O)N1CCC(=C2c3ccc(Cl)cc3CCc3cccnc32)CC1 | 49.7 µM | – | – | – | – | – | – | – | 14.2 µM | > 100 µM | – | – | – | – | – | – | – | – | – | – |
| CN(C)/N=N/c1nc[nH]c1C(N)=O | – | – | – | > 791 µM | > 1000 µM | 82.2 µM and > 763 µM | – | – | > 1000 µM | > 1000 µM | > 1000 µM | 88.3 µM | 39 µM | 54.8 µM | 44 µM | 126 µM | 64400 nM | 84.5 µM | – | – |
| O=c1ccc2nc(-c3ccccn3)nn(-c3ccccc3)c-2c1 | – | – | – | 25.3 µM | 27.4 µM | 23.5 µM | – | – | > 100 µM | 35.9 µM | 10.1 µM | – | – | 11.8 µM | 13.9 µM | 11.4 µM | 2310 nM | – | 2860 nM | 2850 nM |
| O=C(O)C(=O)/C=C(\O)c1ccc(Br)cc1 | > 100 µM | – | – | > 100 µM | > 100 µM | > 100 µM | – | – | – | > 100 µM | > 100 µM | – | – | – | – | – | – | – | – | – |
| O=c1ccc2ccc(O)cc2o1 | – | – | – | > 100 µM | > 100 µM | > 100 µM | – | – | – | > 100 µM | > 100 µM | – | – | – | – | – | – | – | – | – |
| NCCCNCCCCN1CC1 | > 20.7 µM | – | – | > 29.9 µM | > 55.9 µM | 4.3 µM | – | – | – | 66.5 µM | > 20.5 µM | – | – | – | – | – | – | – | – | – |
| C=C1C(=O)OC2CC3(C)OC3CC/C(C)=C/C(OC(C)=O)C12 (configuration not stated) | 15.4 µM | – | 20 µM | 34.8 µM | 27.4 µM | 22 µM | – | 35.1 µM | – | 42.9 µM | 22.2 µM | 31.2 µM | – | – | – | – | – | 4.12 µM | – | – |
| COc1ccc(Sc2ccccc2N)cc1 | > 100 µM | – | > 100 µM | > 100 µM | > 100 µM | 62.2 µM | – | 97.3 µM | > 100 µM | – | – | > 100 µM | – | – | – | – | – | 40 µM | – | – |
| Cc1ccc(CCC(=O)C(=O)O)s1 | > 100 µM | – | > 100 µM | > 100 µM | > 100 µM | > 100 µM | – | > 100 µM | > 100 µM | – | – | > 100 µM | – | – | – | – | – | > 100 µM | – | – |
| COC(=O)C(NC(=O)c1ccccc1)C(c1ccc(Cl)cc1)P(=O)(OC)OC (configuration not stated) | > 100 µM | – | > 100 µM | > 100 µM | > 100 µM | > 100 µM | – | > 100 µM | > 100 µM | – | – | > 100 µM | – | – | – | – | – | > 100 µM | – | – |
| CCOc1ccc2c(c1)c(=O)c1c(NCCN(CC)CC)ccc3nnn2c31 | > 66.2 µM | – | – | > 80.2 µM | > 56.4 µM | – | – | – | 50.1 µM | > 100 µM | > 100 µM | – | – | – | – | – | – | – | – | – |
| CCCCNC(=O)/N=C/c1c(O)c2ccccc2oc1=O | – | – | > 100 µM | > 100 µM | – | – | – | > 100 µM | > 100 µM | – | – | > 100 µM | – | – | – | – | – | 65.1 µM | – | – |
| COc1ccc(N2NC(c3ccccc3)(c3ccccc3)C(C)C2=O)cc1 (configuration not stated) | > 100 µM | – | – | > 100 µM | > 100 µM | > 100 µM | – | – | > 100 µM | > 100 µM | > 100 µM | – | – | – | – | – | – | – | – | – |
| CC(C)(C)CC(C)(C)c1ccc(O)c(C[N+](C)(C)[O-])c1 | > 100 µM | – | – | > 100 µM | > 100 µM | > 100 µM | – | – | > 100 µM | > 100 µM | > 100 µM | – | – | – | – | – | – | – | – | – |
| Cc1ccc(NC(=O)CSC(N)=O)cc1C | > 100 µM | – | – | > 100 µM | > 100 µM | > 100 µM | – | – | > 100 µM | > 100 µM | – | – | – | – | – | – | – | – | – | – |
| COc1ccc(C[C@H](N)C(=O)N2C[C@@H](CO)C[C@@H](n3ccc(=O)[nH]c3=O)C2)cc1 | > 100 µM | – | > 100 µM | > 100 µM | – | – | – | – | > 100 µM | – | – | > 100 µM | – | – | – | – | – | – | – | – |
| COc1ccc(-c2nn(-c3ccc(NC(=O)Nc4ccc(Cl)c(C(F)(F)F)c4)cc3)cc2-c2ccncc2)cc1Cl | 8.55 µM | – | – | 19.5 µM | – | 7.86 µM | – | – | 5.96 µM | 4.22 µM | – | – | 1.25 µM | 2.8 µM | – | 1.36 µM | 1860 nM | – | – | 1100 nM |
